Reference: ChEMBL document CHEMBL1125187, “3-Thienyl- and 3-furylaminobutyric acids. Synthesis and binding GABAB receptor studies” (J Med Chem, 1991)

Experiments:
GABA B receptor = GABA B receptor (Rattus norvegicus, UniProt O88871+Q9Z0U4); assay: Inhibition of [3H]baclofen binding to rat gamma-aminobutyric acid type B receptor.; format: protein-complex assay
[1] = target: GABA-A receptor; anion channel; assay: Inhibition of [3H]muscimol binding to gamma-aminobutyric-acid A (GABA-A) receptor; format: protein-complex assay, Rattus norvegicus

GABA B receptor, sequence (Q9Z0U4 whole entry): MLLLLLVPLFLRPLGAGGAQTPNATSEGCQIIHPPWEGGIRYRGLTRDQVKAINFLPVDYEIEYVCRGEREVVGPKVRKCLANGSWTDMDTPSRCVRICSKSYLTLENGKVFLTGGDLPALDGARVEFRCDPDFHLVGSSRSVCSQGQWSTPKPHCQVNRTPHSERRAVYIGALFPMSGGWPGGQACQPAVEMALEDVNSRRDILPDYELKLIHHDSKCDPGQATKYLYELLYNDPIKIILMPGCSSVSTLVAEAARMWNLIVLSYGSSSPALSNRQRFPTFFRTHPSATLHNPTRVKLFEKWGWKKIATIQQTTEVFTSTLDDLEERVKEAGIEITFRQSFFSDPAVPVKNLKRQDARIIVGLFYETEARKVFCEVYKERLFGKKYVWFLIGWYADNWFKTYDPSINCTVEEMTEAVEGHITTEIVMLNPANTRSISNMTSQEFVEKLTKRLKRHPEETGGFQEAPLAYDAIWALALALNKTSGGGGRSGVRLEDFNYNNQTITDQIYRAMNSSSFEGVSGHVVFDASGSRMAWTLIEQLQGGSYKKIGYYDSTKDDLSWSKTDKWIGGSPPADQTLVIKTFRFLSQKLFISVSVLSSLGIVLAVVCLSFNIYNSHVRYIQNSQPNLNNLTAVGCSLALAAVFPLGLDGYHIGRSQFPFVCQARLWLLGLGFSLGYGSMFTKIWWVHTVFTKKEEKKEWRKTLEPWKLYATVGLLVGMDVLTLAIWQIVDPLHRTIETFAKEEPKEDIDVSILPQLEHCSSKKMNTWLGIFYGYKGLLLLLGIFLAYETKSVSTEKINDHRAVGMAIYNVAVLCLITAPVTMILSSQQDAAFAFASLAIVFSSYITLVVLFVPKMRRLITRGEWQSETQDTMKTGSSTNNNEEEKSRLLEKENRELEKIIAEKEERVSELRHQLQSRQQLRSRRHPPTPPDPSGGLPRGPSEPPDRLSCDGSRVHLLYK
GABA B receptor, sequence (O88871 whole entry): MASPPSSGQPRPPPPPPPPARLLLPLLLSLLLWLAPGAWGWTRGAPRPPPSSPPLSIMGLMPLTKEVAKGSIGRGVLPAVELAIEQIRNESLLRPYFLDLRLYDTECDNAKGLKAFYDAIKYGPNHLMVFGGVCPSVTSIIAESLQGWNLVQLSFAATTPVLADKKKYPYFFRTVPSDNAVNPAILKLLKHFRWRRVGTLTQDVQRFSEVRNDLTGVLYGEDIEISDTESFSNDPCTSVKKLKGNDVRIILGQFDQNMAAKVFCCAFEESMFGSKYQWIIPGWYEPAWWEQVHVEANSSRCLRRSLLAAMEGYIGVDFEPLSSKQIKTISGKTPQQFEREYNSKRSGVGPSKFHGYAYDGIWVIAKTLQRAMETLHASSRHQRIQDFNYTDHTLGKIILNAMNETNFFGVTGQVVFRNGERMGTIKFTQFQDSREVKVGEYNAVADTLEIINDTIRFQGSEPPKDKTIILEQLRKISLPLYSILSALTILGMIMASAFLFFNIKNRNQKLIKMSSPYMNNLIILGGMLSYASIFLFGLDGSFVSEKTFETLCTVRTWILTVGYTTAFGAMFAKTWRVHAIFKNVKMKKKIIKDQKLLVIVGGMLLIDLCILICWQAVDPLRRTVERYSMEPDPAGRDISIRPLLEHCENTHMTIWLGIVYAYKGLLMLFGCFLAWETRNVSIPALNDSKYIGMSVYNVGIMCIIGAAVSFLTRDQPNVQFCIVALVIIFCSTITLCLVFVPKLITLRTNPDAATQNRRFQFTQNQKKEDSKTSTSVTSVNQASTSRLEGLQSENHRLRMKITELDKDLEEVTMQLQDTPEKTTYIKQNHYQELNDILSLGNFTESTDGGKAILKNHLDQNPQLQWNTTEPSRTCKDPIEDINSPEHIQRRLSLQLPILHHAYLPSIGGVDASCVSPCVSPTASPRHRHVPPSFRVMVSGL

In the case of NCC(CC(=O)O)c1ccsc1 (centres undefined), the IC50 (GABA B receptor) is reported as 20.9 µM and the IC50 [1] is reported as > 100 µM.

With NCC(CC(=O)O)c1ccc(O)cc1 (centres undefined) the IC50 (GABA B receptor) was > 100 µM.

For Cc1ccc(C(CN)CC(=O)O)o1 (centres undefined), the IC50 (GABA B receptor) was > 100 µM and the IC50 [1] was > 100 µM.

In the case of NCC(CC(=O)O)c1ccccc1Cl (centres undefined), the IC50 (GABA B receptor) is reported as 0.8 µM.

With NCC(CC(=O)O)c1cc(Br)cs1 (centres undefined) the IC50 (GABA B receptor) was 39.1 µM and the IC50 [1] was > 100 µM.

Cc1ccc(C(CN)CC(=O)O)s1 (centres undefined) was tested, and the IC50 (GABA B receptor) was 1.34 µM and the IC50 [1] was > 100 µM.

NCC(CC(=O)O)c1ccco1 (centres undefined) was tested, and the IC50 (GABA B receptor) was > 100 µM and the IC50 [1] was > 100 µM.

NCC(CC(=O)O)c1cccc(Cl)c1 (centres undefined) showed an IC50 (GABA B receptor) of 20 µM.

Cc1ccsc1C(CN)CC(=O)O (centres undefined) was tested, and the IC50 (GABA B receptor) was 124 µM and the IC50 [1] was > 100 µM.

In the case of NCC(CC(=O)O)c1ccc(Cl)s1 (centres undefined) [4-AMINO-3- (5-CHLOROTHIEN-2-YL)BUTANOIC ACID], the IC50 (GABA B receptor) is reported as 0.61 µM and the IC50 [1] is reported as > 100 µM.

For NCC(CC(=O)O)c1cc(Cl)cs1 (centres undefined), the IC50 (GABA B receptor) was 45.3 µM and the IC50 [1] was > 100 µM.

Compound NC[C@H](CC(=O)O)c1ccc(F)cc1 has an IC50 (GABA B receptor) of 1.33 µM.

With NCC(CC(=O)O)c1ccc(Br)s1 (centres undefined) the IC50 (GABA B receptor) was 1.86 µM and the IC50 [1] was > 100 µM.

NCC(CC(=O)O)c1cccs1 (centres undefined) was tested, and the IC50 (GABA B receptor) was 9.72 µM and the IC50 [1] was > 100 µM.
